How the values were obtained:
TRPV1 = TRPV1 (Mus musculus, UniProt Q704Y3); assay: Resiniferatoxin pretreatment: heat sensitivity, imiquimod-induced scratches, TLR7+ skin fibers; format: in vivo, mice; design: central terminals of TRPV1-expressing nociceptors; from tissue; host or cells: mouse lumbar spinal cord slices (L4-L5); live mice (intrathecal capsaicin, resiniferatoxin pretreatment)
Source text: C-fibers, express transient receptor potential subtype V1 (TRPV1) and are indispensable for itch sensation by various pruritogens (Imamachi, N. et al. Proc. Natl. Acad. Sci. U.S. A 106, 11330-11335 (2009)). […] Thus, TRPV1-expressing C-fibers but not TRPV1 per se are required for imiquimod-elicited itch. We also tested itch responses in mast cell-deficient SASH mice (Liu, Q. et al. Cell 139, 1353-1365 (2009)) and only found a moderate reduction (28%) in imiquimod-induced scratching (FIG. 12c).

DRG neurons = assay: Calcium imaging from cultured DRG neurons; format: cell-based; conditions: wild-type mice DRG neurons
Experimental: DRGs from all spinal levels of 4-week old mice were collected in cold DH10 (90% DMEM/F-12, 10% FBS, 100 U/ml penicillin, and 100 μg/ml Streptomycin, Gibco) and treated with enzyme solution (5 mg/ml Dispase, 1 mg/ml Collagenase Type I in HPBS without Ca^++ and Mg^++, Gibco) at 37° C. Following trituration and centrifugation, cells were resuspended in DH10, plated on glass cover slips coated with poly-D-lysine (0.5 mg/ml, Stoughton, Mass.) and laminin (10 μg/ml, Invitrogen), cultured in an incubator ([…] and 5% CO2) at 37° C. and used within 24 hours. Neurons were loaded with Fura 2-acetomethoxy ester (Molecular Probes) for 30 min in the dark at room temperature. After washing, cells were imaged at 340 and 380 nm excitation to detect intracellular free calcium. To compare the response to histamine, chloroquine, and capsaicin between WT and Tlr3-deficient DRG neurons, calcium imaging assays were performed with an experimenter blind to genotype (n=3 per genotype), and the percentages of DRG neurons showing calcium responses were determined as we previously described (23).

TLR7 [1] = assay: Scratches after intradermal injection in the nape of the neck, WT and Tlr7-/- mice; format: in vivo; conditions: for dose response curve of scratching: intradermal injection, nape
Source text: We next evaluated whether TLR7 plays a role in itch sensation. We counted the number of scratches (bouts) by a hindpaw of mouse following intradermal injection of pruritogenic agents in the nape of the neck.

TLR7 [2] = molecular target: T1, TLR7 (Mus musculus, UniProt P58681); assay: Cheek model of itch versus pain, TLR7 ligands; format: in vivo, mice; conditions: 20 μg intradermal into the cheek
T1 construct: We found functional TLR7 receptors in small-size DRG neurons; from tissue; host or cells: small DRG neurons of mice; nape and cheek skin of live mice (C57BL/6J background, CD1)
T1 sequence (P58681 27-1050): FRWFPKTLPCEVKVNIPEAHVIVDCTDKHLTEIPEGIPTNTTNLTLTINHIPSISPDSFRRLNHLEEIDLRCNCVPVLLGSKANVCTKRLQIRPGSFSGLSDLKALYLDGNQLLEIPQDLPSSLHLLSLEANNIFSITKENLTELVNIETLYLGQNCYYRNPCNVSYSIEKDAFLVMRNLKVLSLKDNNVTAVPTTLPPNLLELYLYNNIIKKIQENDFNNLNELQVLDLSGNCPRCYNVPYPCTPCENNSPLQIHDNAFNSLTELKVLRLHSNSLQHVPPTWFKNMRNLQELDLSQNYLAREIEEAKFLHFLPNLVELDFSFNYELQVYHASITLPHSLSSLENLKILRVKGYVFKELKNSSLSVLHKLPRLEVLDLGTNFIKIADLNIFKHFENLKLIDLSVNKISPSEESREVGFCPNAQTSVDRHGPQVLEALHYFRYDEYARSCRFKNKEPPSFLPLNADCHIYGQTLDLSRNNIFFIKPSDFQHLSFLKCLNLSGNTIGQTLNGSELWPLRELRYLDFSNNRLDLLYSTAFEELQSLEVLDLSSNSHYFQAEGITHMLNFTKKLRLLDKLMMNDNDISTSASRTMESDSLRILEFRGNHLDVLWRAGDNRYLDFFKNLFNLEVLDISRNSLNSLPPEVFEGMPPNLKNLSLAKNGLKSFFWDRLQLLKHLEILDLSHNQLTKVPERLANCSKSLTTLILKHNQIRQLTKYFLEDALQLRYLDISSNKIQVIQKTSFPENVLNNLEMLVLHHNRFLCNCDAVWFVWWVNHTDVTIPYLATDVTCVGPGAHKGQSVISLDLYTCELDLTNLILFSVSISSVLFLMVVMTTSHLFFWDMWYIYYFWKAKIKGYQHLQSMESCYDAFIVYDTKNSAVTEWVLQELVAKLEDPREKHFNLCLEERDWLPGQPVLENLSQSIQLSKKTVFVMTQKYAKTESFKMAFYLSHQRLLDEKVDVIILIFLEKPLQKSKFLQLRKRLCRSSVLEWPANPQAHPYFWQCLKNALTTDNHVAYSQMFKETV
Experimental: To distinguish itch and pain responses simultaneously, we used the cheek model by injection of chemical into cheek of mice (8). After brief anesthesia with isoflurane, we shaved mice on cheeks (approx. 5×8 mm area) two days before experiments. On the day of experiment, we injected 10 μl of reagent (50 μg compound 48/80 or 100 μg chloroquine) into the cheek and counted the number of wipes and the number of scratches for 30 min. We only counted those unilateral wipes with the forelimb that were not part of grooming behavior. One scratch was defined as a lifting of the hind paw toward the injection site on the cheek and then returning the paw to the floor or to the mouth.
To further investigate a unique role of TLR7 in itch versus pain, we used a recently developed “cheek model” of itch (Shimada, S. G. & LaMotte, R. H. Pain 139, 681-687 (2008)).

TRPV1, sequence (Q704Y3 whole entry): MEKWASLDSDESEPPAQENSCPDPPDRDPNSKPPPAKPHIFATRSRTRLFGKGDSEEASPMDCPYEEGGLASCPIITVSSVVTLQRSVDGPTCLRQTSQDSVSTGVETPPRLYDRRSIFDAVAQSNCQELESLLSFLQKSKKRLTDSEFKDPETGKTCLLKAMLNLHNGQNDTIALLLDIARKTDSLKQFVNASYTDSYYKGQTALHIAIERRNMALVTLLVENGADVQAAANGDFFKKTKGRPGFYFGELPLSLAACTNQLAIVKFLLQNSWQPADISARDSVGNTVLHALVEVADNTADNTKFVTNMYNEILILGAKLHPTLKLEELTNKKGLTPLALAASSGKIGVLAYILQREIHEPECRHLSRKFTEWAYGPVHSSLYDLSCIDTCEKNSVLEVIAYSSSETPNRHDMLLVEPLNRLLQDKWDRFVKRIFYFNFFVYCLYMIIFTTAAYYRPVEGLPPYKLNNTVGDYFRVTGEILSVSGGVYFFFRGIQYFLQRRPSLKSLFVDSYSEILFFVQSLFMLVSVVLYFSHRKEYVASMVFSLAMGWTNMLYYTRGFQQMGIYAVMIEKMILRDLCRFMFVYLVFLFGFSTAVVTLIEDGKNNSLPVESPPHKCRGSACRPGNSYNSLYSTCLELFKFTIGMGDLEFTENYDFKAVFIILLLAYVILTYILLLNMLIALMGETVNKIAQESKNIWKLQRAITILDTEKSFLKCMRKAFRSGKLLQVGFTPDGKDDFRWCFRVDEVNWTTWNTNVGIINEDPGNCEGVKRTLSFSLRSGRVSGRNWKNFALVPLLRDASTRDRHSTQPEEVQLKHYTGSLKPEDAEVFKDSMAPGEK

## C=C(C)[C@]12C[C@@H](C)[C@@]34O[C@](Cc5ccccc5)(O[C@@H]1[C@@H]3C=C(COC(=O)Cc1ccc(O)c(OC)c1)C[C@]1(O)C(=O)C(C)=C[C@@H]41)O2 [RTX, resiniferatoxin]
TRPV1; RTX pretreatment
  heat sensitivity after pretreatment: loss of heat sensitivity
  imiquimod-induced scratches after pretreatment: almost abolished
TRPV1; RTX treatment
  TLR7+ fibers in the skin: ablated

## CCN(CC)CCCC(C)Nc1ccnc2cc(Cl)ccc12 (centres unmarked) [chloroquine]
DRG neurons
  neurons with intracellular Ca2+ increases: 5%
TLR7 [1]; 600 μg
  TLR7 dependence of scratching at the highest dose: TLR7-independent
TLR7 [1]
  dose response curve of scratching: bell-shaped dose response curve

## NCCc1c[nH]cn1 [histamine]
DRG neurons
  neurons with intracellular Ca2+ increases: 10%

## C=CCn1c(=O)n([C@@H]2O[C@H](CO)[C@@H](O)[C@H]2O)c2nc(N)[nH]c(=O)c21 [loxoribine]
TLR7 [1]
  dose response curve of scratching: inverted-U-shaped dose response curve
TLR7 [1]; intradermal, 100 μg
  scratches in Tlr7-/- mice versus WT: reduced
TLR7 [2]
  itch-like scratching in cheek model: elicited itch-like scratching
  pain-indicative wiping in cheek model: not pain-indicative wiping behavior
